In paper PMC10126264, “Synergistic effect and antibiofilm activity of the antimicrobial peptide K11 with conventional antibiotics against multidrug-resistant and extensively drug-resistant Klebsiella pneumoniae” (Frontiers in Cellular and Infection Microbiology, 2023):
Where two headings read alike, the source gives them in different places. Residues, ends and D or L forms follow the SMILES beside them.

Columns and labels:
K. pneumoniae ATCC 70063 [1] = system: K. pneumoniae ATCC 70063
Experimental: (§1) The temperature and pH stabilities of K11 were evaluated by the MIC assay, as mentioned above. To assess the thermal stability, Aliquots of 2 mg/mL of K11 in sterile deionized water were incubated for 1 h at 25°C, 37°C, 50°C, 70°C, and 90°C. Then, a series of 2-fold dilutions of K11 were prepared in CAMHB, 50 µL of each peptide solution was transferred to the well of a 96-well microplate. An equal volume of K. pneumoniae ATCC 70063 or K. pneumoniae ATCC BAA-1706 (10^6 CFU/mL) suspension was added, and the mixture was incubated at 37°C for 20-24 h ([Li et al., 2021]). To examine the pH stability, the pH was adjusted to range from 2.0 to 10.0 with the following 100 mM buffers: glycine-HCl buffer (pH 2.0), sodium acetate buffer (pH 4.0), sodium phosphate buffer (pH 6.0), Tris-HCl buffer (pH 8.0), and glycine-NaOH buffer (pH 10.0). Then, 2 mg/mL of K11 was prepared in buffers with different pH values (pH 2.0-10.0) and incubated for 1 h at 37°C. Afterward, the pH of the reaction solution was neutralized by HCl or NaOH to terminate the reaction. The serially diluted peptide solutions were conducted, then treated against the tested strains, and the mixtures were incubated at 37°C for 20-24 h ([Cao et al., 2015]; [Zong et al., 2016]). The MICs were observed.

[2] = system: K. pneumoniae ATCC BAA-1706
Experimental: as §1

K. pneumoniae ATCC 70063 [3] = system: K. pneumoniae ATCC 70063; remark: listed apart in the source
Experimental: The effects of various cations and serum on the antimicrobial activity of K11 were investigated against K. pneumoniae ATCC 70063 and K. pneumoniae ATCC BAA-1706 by the MIC assay, as described above. […] Subsequently, serially 2-fold diluted K11 solutions were prepared in CAMHB, and aliquots of each peptide solution were added to a 96-well plate. An equal volume of bacterial suspension was added, and the mixtures were incubated at 37°C for 20-24 h ([Ko et al., 2019]). For serum stability, 2 mg/mL of K11 was prepared in solution with 25% and 50% FBS and incubated for 1 h at 37°C, then heat […] for 30 min at 60°C. A series of 2-fold dilutions of K11 were performed in CAMHB and transferred to a 96-well plate. The diluted bacterial suspension was added to the well, and mixtures were incubated for 20-24 h at 37°C ([Oliva et al., 2018]). The antimicrobial activity was determined by measuring the MICs.

[4] = system: K. pneumoniae reference strains; experiment: MIC determination, broth microdilution; assay type: cell-based, Klebsiella pneumoniae; settings: K. pneumoniae reference strains (ATCC BAA-1706, ATCC 70063)
Experimental: The log-phase cultures were adjusted to 0.5 McFarland standard and diluted 1:100 in CAMHB to provide the density of 10^6 CFU/mL. Consequently, 50 µL of diluted bacterial suspension was added to wells containing 50 µL of peptide solution, followed by incubation for 20-24 h at 37°C. […] To evaluate MBC, a volume of 10 μL was taken from each well with no visible growth, inoculated on Mueller-Hinton agar (MHA) plates, and incubated at 37°C. The MBC was defined as the lowest concentration of antimicrobials that killed at least 99.9% of the initial inoculums ([Clinical and Laboratory Standards Institute, 1999]).

[5] = ref Jin-Jiang et al., 2012; cited from earlier work
Excerpt: K11 is a synthetic peptide derived from natural AMPs (cecropin A1, melittin, and maganin 2), composed of 20 amino acids ([…]-NH2). […] Moreover, K11 has also been successfully used in vivo as a topic hydrogel solution against Acinetobacter baumannii-infected wounds ([Rishi et al., 2018]).

K. pneumoniae ATCC 70063 [6] = system: K. pneumoniae ATCC 70063; remark: listed apart in the source
Experimental: (§2) The effects of various cations and serum on the antimicrobial activity of K11 were investigated against K. pneumoniae ATCC 70063 and K. pneumoniae ATCC BAA-1706 by the MIC assay, as described above. For salt stability, 2 mg/mL of K11 was dissolved in solutions containing different salts at their physiological concentrations; NaCl (100, 150, and 200 mM), MgCl2 (0.5, 1 and 2 mM), and FeCl3 (1, 4, and 8 mM), then incubated for 1 h at 37°C. Subsequently, serially 2-fold diluted K11 solutions were prepared in CAMHB, and aliquots of each peptide solution were added to a 96-well plate. An equal volume of bacterial suspension was added, and the mixtures were incubated at 37°C for 20-24 h ([Ko et al., 2019]). For serum stability, 2 mg/mL of K11 was prepared in solution with 25% and 50% FBS and incubated for 1 h at 37°C, then heat […] for 30 min at 60°C. A series of 2-fold dilutions of K11 were performed in CAMHB and transferred to a 96-well plate. The diluted bacterial suspension was added to the well, and mixtures were incubated for 20-24 h at 37°C ([Oliva et al., 2018]). The antimicrobial activity was determined by measuring the MICs.

[7] = system: K. pneumoniae ATCC BAA-1706; remark: listed apart in the source
Experimental: as §2

[8] = system: K. pneumoniae ATCC BAA-1706; remark: listed apart in the source
Experimental: The effects of various cations and serum on the antimicrobial activity of K11 were investigated against K. pneumoniae ATCC 70063 and K. pneumoniae ATCC BAA-1706 by the MIC assay, as described above. For salt stability, 2 mg/mL of K11 was dissolved in solutions containing different salts at their physiological concentrations; NaCl (100, 150, and 200 mM), MgCl2 (0.5, 1 and 2 mM), and FeCl3 (1, 4, and 8 mM), then incubated for 1 h at 37°C. Subsequently, serially 2-fold diluted K11 solutions were prepared in CAMHB, and aliquots of each peptide solution were added to a 96-well plate. An equal volume of bacterial suspension was added, and the mixtures were incubated at 37°C for 20-24 h ([Ko et al., 2019]). […] The antimicrobial activity was determined by measuring the MICs.

[9] = K11 2 mg/mL in 100 mM Tris-HCl buffer pH 8.0, 1 h at 37°C, neutralized, then MIC
[10] = K11 2 mg/mL in 100 mM glycine-HCl buffer pH 2.0, 1 h at 37°C, neutralized, then MIC
[11] = K11 2 mg/mL in 100 mM glycine-NaOH buffer pH 10.0, 1 h at 37°C, neutralized, then MIC
[12] = K11 2 mg/mL in 100 mM sodium acetate buffer pH 4.0, 1 h at 37°C, neutralized, then MIC
[13] = K11 2 mg/mL in 100 mM sodium phosphate buffer pH 6.0, 1 h at 37°C, neutralized, then MIC
[14] = K11 2 mg/mL in sterile deionized water incubated 1 h at 25°C (control), then MIC in CAMHB
[15] = K11 2 mg/mL in sterile deionized water incubated 1 h at 37°C, then MIC in CAMHB
[16] = K11 2 mg/mL in sterile deionized water incubated 1 h at 50°C, then MIC in CAMHB
[17] = K11 2 mg/mL in sterile deionized water incubated 1 h at 70°C, then MIC in CAMHB
[18] = K11 2 mg/mL in sterile deionized water incubated 1 h at 90°C, then MIC in CAMHB
[19] = K11 2 mg/mL in FeCl3 1 µM, 1 h at 37°C, then MIC in CAMHB
[20] = K11 2 mg/mL in FeCl3 4 µM, 1 h at 37°C, then MIC in CAMHB
[21] = K11 2 mg/mL in FeCl3 8 µM, 1 h at 37°C, then MIC in CAMHB
[22] = K11 2 mg/mL in MgCl2 0.5 mM, 1 h at 37°C, then MIC in CAMHB
[23] = K11 2 mg/mL in MgCl2 1 mM, 1 h at 37°C, then MIC in CAMHB
[24] = K11 2 mg/mL in MgCl2 2 mM, 1 h at 37°C, then MIC in CAMHB
[25] = K11 2 mg/mL in NaCl 100 mM, 1 h at 37°C, then MIC in CAMHB
[26] = K11 2 mg/mL in NaCl 200 mM, 1 h at 37°C, then MIC in CAMHB
[27] = K11 2 mg/mL in 25% FBS, 1 h at 37°C, then 30 min at 60°C, then MIC in CAMHB
[28] = K11 2 mg/mL in 50% FBS, 1 h at 37°C, then 30 min at 60°C, then MIC in CAMHB

For `CC[C@H](C)[C@H](NC(=O)[C@H](Cc1ccccc1)NC(=O)[C@H](CO)NC(=O)[C@H](CCCCN)NC(=O)[C@H](Cc1c[nH]c2ccccc12)NC(=O)[C@@H](N)CCCCN)C(=O)N[C@@H](CCCCN)C(=O)N[C@@H](CCCCN)C(=O)N[C@@H](CC(C)C)C(=O)N[C@H](C(=O)N[C@@H](CCCCN)C(=O)N[C@@H](CCCCN)C(=O)N[C@@H](Cc1ccccc1)C(=O)N[C@@H](CC(C)C)C(=O)N[C@@H](Cc1c[nH]cn1)C(=O)N[C@@H](CO)C(=O)N[C@@H](C)C(=O)N[C@@H](CCCCN)C(=O)N[C@@H](CCCCN)C(=O)N[C@@H](Cc1ccccc1)C(N)=O)[C@@H](C)O` [K11] (H-KWKSFIKKLTKKFLHSAKKF-NH2), the “Antimicrobial activity MIC” value (K. pneumoniae ATCC 70063 [1]; [9]) was 4 µg/mL, the “Antimicrobial activity MIC” value (K. pneumoniae ATCC 70063 [1]; [10]) was 4 µg/mL and the “Antimicrobial activity MIC” value (K. pneumoniae ATCC 70063 [1]; [11]) was 4 µg/mL. For the same compound, the “Antimicrobial activity MIC” value (K. pneumoniae ATCC 70063 [1]; [12]) was 4 µg/mL, the “Antimicrobial activity MIC” value (K. pneumoniae ATCC 70063 [1]; [13]) was 4 µg/mL and the “Antimicrobial activity MIC” value (K. pneumoniae ATCC 70063 [1]; [14]) was 4 µg/mL. The “Antimicrobial activity MIC” value (K. pneumoniae ATCC 70063 [1]; [15]) was 4 µg/mL, the “Antimicrobial activity MIC” value (K. pneumoniae ATCC 70063 [1]; [16]) was 4 µg/mL and the “Antimicrobial activity MIC” value (K. pneumoniae ATCC 70063 [1]; [17]) was 4 µg/mL. The “Antimicrobial activity MIC” value (K. pneumoniae ATCC 70063 [1]; [18]) was 4 µg/mL, the “Antimicrobial activity MIC” value (K. pneumoniae ATCC 70063 [1]; pH 7 (control)) was 4 µg/mL and the “Antimicrobial activity MIC” value [2, 9] was 2 µg/mL. The “Antimicrobial activity MIC” value [2, 10] was 2 µg/mL, the “Antimicrobial activity MIC” value [2, 11] was 2 µg/mL and the “Antimicrobial activity MIC” value [2, 12] was 2 µg/mL. For the same compound, the “Antimicrobial activity MIC” value [2, 13] was 2 µg/mL, the “Antimicrobial activity MIC” value [2, 14] was 2 µg/mL and the “Antimicrobial activity MIC” value [2, 15] was 2 µg/mL. The “Antimicrobial activity MIC” value [2, 16] was 2 µg/mL, the “Antimicrobial activity MIC” value [2, 17] was 2 µg/mL and the “Antimicrobial activity MIC” value [2, 18] was 2 µg/mL. The “Antimicrobial activity MIC” value ([2]; pH 7 (control)) was 2 µg/mL, the “Antimicrobial activity MIC” value (K. pneumoniae ATCC 70063 [3]; Control, salt concentration 0) was 4 µg/mL and the “Antimicrobial activity MIC” value (K. pneumoniae ATCC 70063 [3]; [19]) was 4 µg/mL. The “Antimicrobial activity MIC” value (K. pneumoniae ATCC 70063 [3]; [20]) was 4 µg/mL, the “Antimicrobial activity MIC” value (K. pneumoniae ATCC 70063 [3]; [21]) was 4 µg/mL and the “Antimicrobial activity MIC” value (K. pneumoniae ATCC 70063 [3]; [22]) was 4 µg/mL. For the same compound, the “Antimicrobial activity MIC” value (K. pneumoniae ATCC 70063 [3]; [23]) was 4 µg/mL, the “Antimicrobial activity MIC” value (K. pneumoniae ATCC 70063 [3]; [24]) was 8 µg/mL and the “Antimicrobial activity MIC” value (K. pneumoniae ATCC 70063 [3]; [25]) was 4 µg/mL. For the same compound, the “Antimicrobial activity MIC” value (K. pneumoniae ATCC 70063 [3]; K11 2 mg/mL in NaCl 150 mM, 1 h at 37°C, then MIC in CAMHB) was 4 µg/mL, the “Antimicrobial activity MIC” value (K. pneumoniae ATCC 70063 [3]; [26]) was 4 µg/mL and the “MIC, range over strains” value [4] was 2 to 4 µg/mL. The hemolytic activity [5] was “no hemolytic activity”, the “Antimicrobial activity MIC” value (K. pneumoniae ATCC 70063 [6]; 0% FBS (control)) was 4 µg/mL and the “Antimicrobial activity MIC” value (K. pneumoniae ATCC 70063 [6]; [27]) was 4 µg/mL. The “Antimicrobial activity MIC” value (K. pneumoniae ATCC 70063 [6]; [28]) was 4 µg/mL, the “Antimicrobial activity MIC” value ([7]; 0% FBS (control)) was 2 µg/mL and the “Antimicrobial activity MIC” value [7, 27] was 2 µg/mL. For the same compound, the “Antimicrobial activity MIC” value [7, 28] was 2 µg/mL, the “Antimicrobial activity MIC” value ([8]; Control, salt concentration 0) was 2 µg/mL and the “Antimicrobial activity MIC” value [8, 19] was 2 µg/mL. The “Antimicrobial activity MIC” value [8, 20] was 2 µg/mL, the “Antimicrobial activity MIC” value [8, 21] was 2 µg/mL and the “Antimicrobial activity MIC” value [8, 22] was 2 µg/mL. For the same compound, the “Antimicrobial activity MIC” value [8, 23] was 2 µg/mL, the “Antimicrobial activity MIC” value [8, 24] was 2 µg/mL and the “Antimicrobial activity MIC” value [8, 25] was 2 µg/mL. The “Antimicrobial activity MIC” value ([8]; K11 2 mg/mL in NaCl 150mM, 1 h at 37°C, then MIC in CAMHB) was 4 µg/mL and the “Antimicrobial activity MIC” value [8, 26] was 4 µg/mL.
